Assays:
[1] = tested on: A549 (Lung cancer cell); assay: MTT cytotoxicity assay, A549; type: cell-based; conditions: Homo sapiens; 24-hour MTT, A549 cell line; read-out: IC50 against A549
Experimental: (§1) Cytotoxicity studies were carried out using the MTT method, based on the principle of forming purple formazan salt. The MTT procedure was performed using a CO2 incubator during a 24-hour incubation period, as described in our previous publications. The results were detected with a microplate reader.
(§2) For activity studies, the 24-hour MTT procedure was applied. A549 (Lung cancer cell) (ATCC-CRM-CCL-185), MCF-7 (breast cancer cell) (ATCC-HTB-22), and NIH3T3 (normal fibroblast cell) (ATCC-CRL-1658) were used. Looking at the activity results, compound 4d is promising. […] The value shown against the MCF-7 cell line is especially important. Therefore, compound 4d was subjected to the aromatase enzyme inhibition test in vitro. When the structure of compound 4d was examined, unlike other compounds, it carried a nitro substitution in the fourth position of the phenyl ring.

[2] = tested on: MCF-7 (breast cancer cell); assay: MTT cytotoxicity assay, MCF-7; type: cell-based; conditions: Homo sapiens, MCF7; 24-hour MTT, MCF-7 cell line; read-out: IC50 against MCF-7
Experimental: as §1, §2

[3] = tested on: NIH3T3 (normal fibroblast cell); assay: MTT cytotoxicity assay, NIH3T3 healthy cell line; type: cell-based; conditions: Mus musculus, 24-hour MTT, read-out: IC50 against NIH3T3
Experimental: as §1, §2

[4] = tested on: DNA synthesis; assay: BrdU analysis (DNA synthesis inhibition); type: cell-based
Experimental: Three different incubation periods were selected for the experiment, which was carried out according to the kit procedure. (BioVision, BrdU Cell Proliferation Assay Kit (Fluorometric)). Test results performed at 24-hour, 48-hour, and 72-hour periods were based on fluorimetric measurement of the color change caused by the addition of the stop solution. It enables us to find out where the anticancer effect of anticancer compounds originates from. In other words, the following question persists: by affecting which phase in the cell cycle is DNA synthesis inhibited? BrdU analysis is important to find the answer to this question.
With the Brdu studies, the potential of compound 4d to inhibit DNA synthesis was examined in 24-, 48- and 72-hour periods. […] Since DNA synthesis occurs in the […] of the cell cycle, it would be a correct approach to say that the compounds affect the G2 phase.

[5] = target: T1, Aromatase (CYP19A) (Homo sapiens, UniProt P11511); assay: Aromatase (CYP19A) inhibitor screening kit (fluorometric); type: biochemical; conditions: read-out: IC50 aromatase enzyme inhibition
T1 construct: purchased BioVision
T1 sequence (P11511 1-503): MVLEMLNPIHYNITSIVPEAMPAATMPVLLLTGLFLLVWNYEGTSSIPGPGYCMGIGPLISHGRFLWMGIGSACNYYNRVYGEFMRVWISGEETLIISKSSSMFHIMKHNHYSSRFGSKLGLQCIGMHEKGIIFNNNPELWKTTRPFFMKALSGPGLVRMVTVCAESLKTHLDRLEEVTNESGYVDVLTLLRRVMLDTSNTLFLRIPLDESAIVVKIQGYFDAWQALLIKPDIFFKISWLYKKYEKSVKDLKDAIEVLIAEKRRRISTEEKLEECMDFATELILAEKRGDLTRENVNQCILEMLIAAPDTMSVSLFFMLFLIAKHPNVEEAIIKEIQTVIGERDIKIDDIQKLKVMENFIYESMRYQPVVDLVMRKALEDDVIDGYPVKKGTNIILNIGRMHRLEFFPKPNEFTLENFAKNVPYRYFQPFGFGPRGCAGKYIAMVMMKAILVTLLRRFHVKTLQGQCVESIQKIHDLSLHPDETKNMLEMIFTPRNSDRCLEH
Experimental: In the experiment performed according to the kit procedure, IC50 values of the compound were calculated from the results obtained with the help of a microplate reader (BioVision, Aromatase (CYP19A) Inhibitor Screening Kit (Fluorometric)).

**Q.** Which results are given for `CCn1c(SCC(=O)c2ccc([N+](=O)[O-])cc2)nnc1-c1nc[nH]c1C` [Compound 4d, 2-((4-ethyl-5-(5-methyl-1H-imidazol-4-yl)-4H-1,2,4-triazol-3-yl)thio)-1-(4-nitrophenyl) ethan-1-one]?
**A.** IC50 [1]: 17.2 µM; IC50 [2]: 6.73 µM; IC50 [3]: 13.2 µM; DNA synthesis inhibition ([4]; 24-hour incubation, 2xIC50 dose): 63.3%; DNA synthesis inhibition ([4]; 24-hour incubation, IC50/2 dose): 16.1%; DNA synthesis inhibition ([4]; 24-hour incubation, IC50 dose): 28.1%; DNA synthesis inhibition ([4]; 48-hour incubation, 2xIC50 dose): 79.0%; DNA synthesis inhibition ([4]; 48-hour incubation, IC50/2 dose): 40.4%; DNA synthesis inhibition ([4]; 48-hour incubation, IC50 dose): 77.5%; DNA synthesis inhibition ([4]; 72-hour incubation, 2xIC50 dose): 92.4%; DNA synthesis inhibition ([4]; 72-hour incubation, IC50/2 dose): 77.8%; DNA synthesis inhibition ([4]; 72-hour incubation, IC50 dose): 80.6%; IC50 [5]: 0.097 µM

**Q.** `CCn1c(SCC(=O)c2ccc(C)cc2C)nnc1-c1[nH]cnc1C` [Compound 4h] was tested. Which IC50 [1] did it give?
**A.** 17.2 µM

**Q.** And the IC50 [2]?
**A.** > 100 µM

**Q.** What about the IC50 [3] of the same molecule?
**A.** 27.2 µM

**Q.** `CCn1c(SCC(=O)c2ccc(F)cc2F)nnc1-c1[nH]cnc1C` [Compound 4i] was tested. Which IC50 [1] did it give?
**A.** 86.2 µM

**Q.** What about the IC50 [2] of the same molecule?
**A.** 64.4 µM

**Q.** And the IC50 [3]?
**A.** 27.2 µM

**Q.** Which IC50 [1] does the source give for `CCn1c(SCC(=O)c2ccc(Cl)cc2Cl)nnc1-c1[nH]cnc1C` [Compound 4j] here?
**A.** 66.1 µM

**Q.** And the IC50 [2]?
**A.** 28.9 µM

**Q.** What about the IC50 [3] of the same molecule?
**A.** 18.4 µM
